Marks after values point to notes of the source that are not given here.
What was measured:
[1] = system: human ovarian cancer A2780; assay: Human ovarian cancer A2780 transplanted tumor in nude mice; format: in vivo, BALB/C nude mice; details: A2780, 200 mg/kg ip × 14
Method: A human ovarian cancer A2780 model transplanted into nude mice was used in the experiment to investigate the anti-tumor effect of test compounds.
(§1) Preparation: The compound was prepared as the injection at the desired concentration with sterile normal saline, prior to administration.
Animal strain: BALB/C nude mice (SPF grade), weight: 19-21 g, gender: male.
Number of animals in each treatment group: 8; number of animals in the control group: >12.
(§2) The tumor blocks of human ovarian cancer A2780 growing well were cut into uniform small pieces of 3 mm under sterile conditions, and then subcutaneously inoculated into the right armpit of each mouse with a cannula. The mice were divided into 9 groups, 8 mice for each treatment group, while >12 mice were included in the control group.
(§3) 14 days after inoculation, the average volume of the tumor block was about 100 mm^3. The animals were regrouped based on the size of the tumor, and the animals with tumors that were too large and too small were sifted out. For each group, the average volume of tumors was basically the same, and then the mice were initially treated with test compounds. The mice were intraperitoneally injected once a day for 14 days, at a dosage of 0.2 mL/20 g body weight; the mice in the control group were given the same volume of sterile normal saline. From the 14th day of inoculation, the long diameter a (mm) of the tumor, together with the perpendicular short diameter b (mm), was measured using a digital electronic caliper, twice a week. The calculation formula of tumor volume is: TV=ab^2/2, and the formula for calculating the relative tumor volume is RTV=Vt/Vo, wherein Vo denotes the tumor volume measured when the mice were divided into groups (i.e. d1), and Vt is the tumor volume from each measurement.
(§4) The result determination is based on the following formula: […]

[2] = system: LLC (mouse lung cancer cells); assay: Enrichment of CD8+ cytotoxic T lymphocytes in tumor tissue, Lewis non-small cell lung cancer model of mice; format: in vivo; details: 400 mg/kg ip once a day for 10 days, flow cytometry
Method: LLC (mouse lung cancer cells) were a mouse Lewis lung cancer cells.
The modeling method for LLC cell lung cancer in mice was as follows:
LLC cells were cultured in the general medium containing 10% fetal bovine serum and 100 μg/mL of double antibody (penicillin±streptomycin), and then cultivated in a 37° C., 5% CO2 cell incubator for routine incubation. LLC cells, that had grown to logarithmic phase, were digested with 0.25% trypsin (containing EDTA) to form a cell suspension, which was centrifuged at 1000 rpm/min for 3 min. The supernatant was discarded, and cell precipitates were collected, that were resuspended in culture medium without serum and double antibody. The cell suspension was further centrifuged to adjust the volume under the same conditions with the aid of cell counting, so as to prepare a cell suspension at a concentration of […] was injected into the right abdomen of each mouse, to complete the inoculation of tumor cells. The tumor was allowed to grew about 10 days, and the volume reached around 100 mm^3, before the mice were treated with test compounds.
Drug preparation: compounds 1-13 of the present invention were respective prepared into an injection with injection water.
Experimental methods: The model mice with LLC cell lung cancer were treated by intraperitoneal administration of 400 mg/kg injection containing the compound of the present invention. The model mice were divided into a negative control group (model mice only receiving equal volume of injection water by intraperitoneal administration) and treatment groups (model mice receiving the injection prepared with the compound of the present invention by intraperitoneal administration). The intraperitoneal injection regimen was carried out by injecting once a day at the pre-determined time. Before administration, the mice were weighed, and then treated with the injection at a dosage of 10 mL/kg, After successive administration for 10 days, that is, on the 10th day after receiving treatment, the mice were sacrificed, and the subcutaneous tumors were stripped to detect the ratio of cytotoxic T lymphocyte antigen CD8^+ in tumor tissues of the negative group and the treatment group by flow cytometry.
CD8^+ tumor-infiltrating lymphocytes in tumor tissues were detected by flow cytometry. The specific steps were as follows:
The mice were sacrificed, and then the abdominal epidermis of the mice was cut open using ophthalmic scissors, to fully expose the subcutaneous tumors. The subcutaneous tumor tissues on the right side of the mouse's abdomen were gradually peeled off with tweezers and ophthalmic scissors. After rinsing with PBS, the stripped tumor tissues were cut into about 1 mm using ophthalmic scissors, and then placed in 3 mL of PBS buffer containing 100 μg/mL of hyaluronidase. A centrifuge tube containing a dispersed liquid was placed in a water bath and kept at 37° C. for 20 min. A pipette was used to blow and shake the digestive tumor tissues every 5 minutes to fully digest. The dispersed liquid containing undigested tumor tissues was filtered through a 70 μm stainless steel cell screen, and the remaining undigested tumor tissues were ground using a push rod of 20 mL syringe on 70 μm cell screen and rinsed 5 times with 1 mL of PBS while grinding. The cell suspension passing the cell screen was transferred to a 15 mL centrifuge tube, and centrifuged at 4000 rpm for 3 min. Then, cell precipitates were collected, to which was added 2 mL of red cell lysis buffer, and rested for 10 min, followed by centrifuging at 4000 rpm for 3 min. After washing with PBS, the cells were resuspended by adding 2-3 mL of PBS.
An appropriate amount of cell suspension was used as the sample for flow cytometry, and after counting, the cell suspension was adjusted to have a concentration of 5×10^6/mL. 100 μL of cell suspension was added to a test tube with a pipettor. […]

[3] = system: human lung cancer A549; assay: Human lung cancer A549 transplanted tumors in nude mice; format: in vivo, BALB/C nude mice; details: A549, 400 mg/kg ig × 14
Method: In this experiment, a human lung cancer A549 model transplanted into nude mice was selected to study the anti-tumor effect of test compounds. The mice were treated at a dosage of 400 mg/kg by gavage for 14 days, and the tumor inhibition rate against human lung cancer A549 was measured.
Preparation: The compound was prepared as the solution at the desired concentration with distilled water, prior to administration.
Animal strain: BALB/C nude mice (SPF grade), weight: 19-21 g, gender: male. Number of animals in each treatment group: 8; Number of animals in the control group: >12.
(§5) Lung cancer A549 tumor blocks with good growth were chosen and cut into uniform small pieces of 3 mm under sterile conditions, and then subcutaneously inoculated into the right armpit of each mouse with a cannula. These mice were divided into 9 groups, 8 mice for each treatment group, while more than 12 mice were included in the control group.
14 days after inoculation, the average volume of the tumor mass was about 100 mm^3. The animals were regrouped based on the size of the tumor, and the mice with tumors that were too large and too small were eliminated. For each group, the average volume of tumors was basically the same, and then the mice were treated with test compounds. The mice in the treatment groups were administered once a day by gavage for 14 successive days, at a dosage of 0.5 mL/20 g body weight; the mice in the control group were given the same volume of physiological saline. From the 14th day of inoculation, the long diameter a (mm) of the tumor, together with the perpendicular short diameter b (mm), was measured using a digital electronic caliper, twice a week. The calculation formula of tumor volume is: TV=ab^2/2, and the formula for calculating the relative tumor volume is RTV=Vt/Vo, wherein Vo denotes the tumor volume measured when the mice were divided into groups (i.e. d1), and Vt is the tumor volume from each measurement.
as §4

[4] = system: LLC (mouse lung cancer cells); assay: Enrichment of CD8+ cytotoxic T lymphocytes in tumor tissue, Lewis non-small cell lung cancer model of mice; format: in vivo; details: 400 mg/kg ip once a day for 10 days, CD8+ immunohistochemistry
[5] = system: nonfusion human umbilical vein endothelial cells (HUVEC); assay: TMT quantitative proteomics on nonfusion HUVEC; format: cell-based; details: 10 μM; for Differentially expressed proteins: more than 1.5 times or less than 0.67 times vs control; for Down-regulation / Up-regulation: number of proteins
Method: Nonfusion human umbilical vein endothelial cells (HUVEC) were used to simulate new tumor blood vessels, while confluent HUVECs were used to simulate normal blood vessels, to construct experimental models. Two different HUVECs were treated with the compound at the same dosage of 10 μM, to simulate the fusion cell state, and proteome samples were prepared. After preparation of peptide segments, the segments were labelled with TMT, and a quantitative proteomics analysis was carried out. The efficiency of TMT labeling was higher than 99.4%, and a total of 28372 peptide segments from 4934 proteins were characterized using a strict 1% FDR limit. Among them, 4909 quantifiable proteins were identified, indicating reliable quality. The nonfusion treatment groups and the fusion treatment groups were compared with their respective control groups, and the control group was used as a reference, with a significant difference of more than 1.5 times or less than 0.67 times as the protein score standard.
The total cell proteins of the samples in nonfusion cell groups and fusion cell groups were extracted separately, and 2 μg of protein samples were subjected to quality analysis, The quantitative proteomics experiments were carried out, and the protein concentration assay was performed by quantitative grayscale measurement.
Data analysis: The human protein database (Scientific name: Homo sapiens, 9606) was downloaded from UniProt, MaxQuant (v 1.5.5.1) search engine was used to search for the database. A total of 4934 proteins (4909 quantitative proteins) and 28372 peptide segments were identified by TMT quantitative proteomics experiments, with a labeling efficiency of more than 99%, and the complete digestion occupied 86.3%.

[6] = system: human liver cancer QGY7703; assay: Human liver cancer QGY7703 transplanted tumor in nude mice; format: in vivo, BALB/C nude mice; design: key to RTV (d 18): RTV = Vt/Vo, tumor volume relative to volume at grouping (d1); details: QGY7703, 100 mg/kg iv × 14
Method: A human liver cancer QGY7703 model transplanted into nude mice was used in the experiment to investigate the anti-tumor effect of test compounds. The mice were intravenously injected at a dosage of 100 mg/kg for 14 days, and the tumor inhibition rate against human liver cancer QGY7703 was measured.
as §1
Animal strain: BALB/C nude mice (SPF grade), weight: 19-21 g, gender: male. Number of animals in each treatment group: 8; number of animals in the control group: >12.
as §5, with “The” for “Lung cancer A549”, “blocks of human liver cancer QGY7703” for “blocks”, “were” for “were chosen and”
as §3, with “The mice in the treatment groups were intravenously” for “The mice were intraperitoneally”, “groups were intravenously injected once” for “mice were intraperitoneally injected once”, “dosage of 0.1 mL/20 g” for “dosage of 0.2 mL/20 g”
as §4

[7] = system: human renal cell carcinoma AGHN; assay: Human renal cell carcinoma AGHN transplanted tumor in nude mice; format: in vivo, BALB/C nude mice; details: 200 mg/kg ip × 14
Method: A human renal cell carcinoma AGHN model transplanted into nude mice was used in the experiment to investigate the anti-tumor effect of test compounds. […] AGHN was measured.
as §1
Animal strain: BALB/C, nude mice (SPF grade), weight: 19-21 g, gender: male. Number of animals in each treatment group: 8; number of animals in the control group: >12.
as §2, with “renal cell carcinoma AGHN with good growth” for “ovarian cancer A2780 growing well”
as §3, with “about 100 mm^3, The animals” for “about 100 mm^3. The animals”, “tumor volume is: RTV=Vt/Vo, wherein” for “tumor volume is RTV=Vt/Vo, wherein”, “and Vt denotes the tumor” for “and Vt is the tumor”
as §4

CCOc1ccc(/C=C(/C(=O)O)c2cc(OC)c(OC)c(OC)c2)cc1O [Compound 13, (E)-3-(4-ethoxy-3-hydroxyphenyl)-2-(3,4,5-trimethoxyphenyl)acrylic acid]
RTV (d 18) [1]: 4.78 ± 0.83
Tumor inhibitory rate % [1]: 53.64^## %
The ratio of CD8^+ in total immune cells of tumor tissues (%) [2]: 0.0723 ± 0.0126%
RTV (d 22) [3]: 3.83 ± 0.64
inhibition in vivo at 400 mg/kg ([3]; Mus musculus, po, read-out: Tumor inhibitory rate %): 67.4%
The ratio of distribution area in tumor tissues (%) [4]: 6.547 ± 0.5843%
Differentially expressed proteins [5]: 319
Down-regulation [5]: 312
Up-regulation [5]: 7

COc1ccc(/C=C(/C(=O)O)c2cc(OC)c(OC)c(OC)c2)c(OC)c1O [Compound 12, (E)-3-(3-hydroxy-2,4-dimethoxyphenyl)-2-(3,4,5-trimethoxyphenyl)acrylic acid]
inhibition in vivo at 100 mg/kg ([6]; Mus musculus, QGY-7703, read-out: Tumor inhibitory rate %): 62.2%
RTV (d 18) [6]: 4.86 ± 0.59
The ratio of CD8^+ in total immune cells of tumor tissues (%) [2]: 0.0753 ± 0.0103%
RTV (d 18) [7]: 5.62 ± 0.59
Tumor inhibitory rate % [7]: 58.48^## %
The ratio of distribution area in tumor tissues (%) [4]: 5.883 ± 0.6723%
Differentially expressed proteins [5]: 322
Down-regulation [5]: 314
Up-regulation [5]: 8
